Measured values from the supplement of paper PMC10307832.

Key:
Assay in all cases: relative viability (nuclei count vs DMSO), 5 days (fraction); higher = more cells survive
Zosuquidar + Luminespib = compound: O[C@@H](COc1cccc2ncccc12)CN1CCN([C@@H]2c3ccccc3[C@@H]3[C@H](c4ccccc42)C3(F)F)CC1 [Zosuquidar] + CCNC(=O)c1noc(-c2cc(C(C)C)c(O)cc2O)c1-c1ccc(CN2CCOCC2)cc1 [Luminespib] (partner 0.01 µM)
Method in brief: (§1)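 For relative viability, nuclei counts in treated wells were divided by those in vehicle wells. Lung cancer cell lines had been pin-tool dosed in 1536-well plates the day after seeding and cultured for 5 days, then fixed and stained in one step (final 0.05% Triton X-100, 1% formaldehyde, 1 ug/ml Hoechst) and imaged at 4×. Doses were one drug alone or a fixed anchor-drug dose plus five library-drug doses (not always all listed) in √10 steps, and values are duplicate-plate medians.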

Cabozantinib + Alpelisib = compound: COc1cc2nccc(Oc3ccc(NC(=O)C4(C(=O)Nc5ccc(F)cc5)CC4)cc3)c2cc1OC [Cabozantinib] + Cc1nc(NC(=O)N2CCC[C@H]2C(N)=O)sc1-c1ccnc(C(C)(C)C(F)(F)F)c1 [Alpelisib] (partner 2 µM)
Method in brief: as §1

Kobe2602 + Palbociclib = compound: C1=CC(=CC=C1NC(=S)NNC2=C(C=C(C=C2[N+](=O)[O-])C(F)(F)F)[N+](=O)[O-])F [Kobe2602] + CC(=O)c1c(C)c2cnc(Nc3ccc(N4CCNCC4)cn3)nc2n(C2CCCC2)c1=O [Palbociclib] (partner 0.5 µM)
Method in brief: as §1

[1] = compound: COc1cc2nccc(Oc3ccc(NC(=O)C4(C(=O)Nc5ccc(F)cc5)CC4)cc3)c2cc1OC [Cabozantinib] + CC(=O)Nc1cccc(-n2c(=O)n(C3CC3)c(=O)c3c(Nc4ccc(I)cc4F)n(C)c(=O)c(C)c32)c1 [Trametinib] (partner 0.02 µM)
Method in brief: as §1

Cell Line | relative viability (Zosuquidar + Luminespib; first compound 0.01 µM) | relative viability (Zosuquidar + Luminespib; first compound 0.03162 µM) | relative viability (Zosuquidar + Luminespib; first compound 0.1 µM) | relative viability (Zosuquidar + Luminespib; first compound 0.3162 µM) | relative viability (Zosuquidar + Luminespib; first compound 1 µM) | relative viability (Cabozantinib + Alpelisib; first compound 0.02 µM) | relative viability (Cabozantinib + Alpelisib; first compound 0.06325 µM) | relative viability (Cabozantinib + Alpelisib; first compound 0.2 µM) | relative viability (Cabozantinib + Alpelisib; first compound 0.6325 µM) | relative viability (Cabozantinib + Alpelisib; first compound 2 µM) | relative viability (Kobe2602 + Palbociclib; first compound 0.2 µM) | relative viability (Kobe2602 + Palbociclib; first compound 0.6325 µM) | relative viability (Kobe2602 + Palbociclib; first compound 2 µM) | relative viability (Kobe2602 + Palbociclib; first compound 6.325 µM) | relative viability (Kobe2602 + Palbociclib; first compound 20 µM) | relative viability ([1]; first compound 0.02 µM) | relative viability ([1]; first compound 0.06325 µM) | relative viability ([1]; first compound 0.2 µM) | relative viability ([1]; first compound 0.6325 µM) | relative viability ([1]; first compound 2 µM)
NCI-H358 | 0.334 | 0.356 | 0.441 | 0.347 | 0.413 | 0.912 | 1.13 | 0.852 | 0.803 | 0.824 | 0.14 | 0.128 | 0.142 | 0.144 | 0.138 | 0.114 | 0.138 | 0.136 | 0.139 | 0.126
NCI-H2342 | 0.753 | 0.591 | 0.605 | 0.644 | 0.845 | – | – | – | – | – | 0.537 | 0.563 | 0.467 | 0.532 | 0.535 | 0.872 | 0.949 | 0.878 | 0.738 | 0.535
LK-2 | 0.185 | 0.184 | 0.169 | 0.172 | 0.172 | – | 1.22 | 1.08 | 1.23 | 0.856 | 0.904 | 0.628 | 0.81 | 0.649 | 0.687 | 0.678 | 0.836 | 0.717 | 0.863 | 0.781
ABC-1 | 0.682 | 0.742 | 0.748 | 0.603 | 0.474 | 0.865 | 1.16 | 1.01 | 1.01 | 0.995 | 0.579 | 0.762 | 0.559 | 0.853 | 0.739 | – | – | – | – | –
NCI-H1563 | 0.471 | 0.536 | 0.523 | 0.538 | 0.532 | 0.931 | 0.916 | 0.912 | 0.864 | 0.806 | – | – | – | – | – | – | – | – | – | –
NCI-H1650 | 0.178 | 0.183 | 0.204 | 0.203 | 0.202 | – | – | – | – | – | 0.36 | 0.35 | 0.365 | 0.366 | 0.261 | 0.656 | 0.615 | 0.391 | 0.643 | 0.691
HCC-366 | – | – | – | – | – | 0.585 | 0.619 | 0.445 | 0.328 | 0.294 | 0.377 | 0.344 | 0.35 | 0.384 | 0.395 | 0.409 | 0.334 | 0.35 | 0.285 | 0.272
NCI-H522 | 1.08 | 1.19 | 1.23 | 0.965 | 1.28 | – | – | – | – | – | 1.13 | 1.1 | 0.915 | 1.11 | 0.993 | 0.823 | 0.819 | 0.78 | 0.861 | 0.69
SW 900 | 0.172 | 0.171 | 0.181 | 0.198 | 0.172 | – | – | – | – | – | 0.621 | 0.53 | 0.559 | 0.567 | 0.551 | 0.978 | 0.841 | 0.611 | 0.955 | 0.852
EBC-1 | – | – | – | – | – | 0.718 | 0.931 | 0.208 | 0.185 | 0.22 | – | – | – | – | – | – | – | – | – | –
IA-LM | – | – | – | – | – | 0.874 | 0.876 | 0.928 | 0.941 | 0.952 | – | – | – | – | – | – | – | – | – | –
NCI-H596 | 1.1 | – | 0.804 | 0.983 | 0.931 | 0.462 | 0.191 | 0.552 | 0.416 | 0.385 | – | – | – | – | – | 0.94 | 0.941 | 0.797 | 0.779 | 0.78
